Assay [1] deals with PAF-Induced Platelet Count Decrease. Nature of the assay: PAF-Induced Platelet Count Decrease. It is filed as in vivo, guinea pig. Conditions: for inhibition in vivo at 3 mg/kg: Cavia porcellus, Platelet, 0.25 h, iv, 15 minutes pretreatment time, read-out: PAF-Induced Platelet Count Decrease % Inhibition, i.v. Here is the method: Male Hartley guinea pigs weighing between 500 and 900 grams were fed standard guinea pig chow and tap water ad libitum. PAF was solubilized in ethanol and stored as a 2 mM stock solution at -70° C. The stock solution of PAF was diluted to […] in Tris buffer pH 7.4 and 0.1% BSA for all experiments.
Guinea pigs were anesthetized with urethane (1.6 g/kg, i.p.). A catheter (PE50) was introduced into the right carotid artery for withdrawing blood. A second catheter PE10) was introduced into the jugular vein for injecting drugs and for administering the PAF challenge (75 ng/kg, i.v.). A control blood sample was obtained and platelets were counted in a whole blood platelet analyzer. PAF was then given and blood samples were taken 15, 30, and 60 seconds after the challenge for platelet counts. Fifteen minutes later, selected concentrations of the test compound were solubilized in DMSO and injected intravenously into a group of 4-6 animals. Only one concentration of the test drug was used in each animal group. Fifteen minutes after drug injection, blood samples were taken before and 15, 30, and 60 sec after the PAF challenge, and analyzed for platelet number.
Animals were anesthetized with sodium pentobarbital (35 mg/kg. i.p.) and the carotid artery and jugular vein were cannulated as described above. The cannulae were exteriorized at the base of the neck and the animals were allowed to recover. Conscious, unrestrained guinea pigs which were allowed to recover from surgery for at least 18 hours were used in the experiments. The animals were challenged two times with PAF (120 ng/kg, i.v.); the first to establish a consistent response to PAF and the second to serve as a control from the PAF challenge. Blood samples were taken before and 15, 30, and 45 seconds after PAF challenge and platelets were counted. Thirty minutes after the control PAF challenge, the animals were orally dosed with either gum acacia or the test compound. Animals were then challenged with PAF at 1, 3, 5, and 24 hours after the administration of the drug.
The % change, i.e., the difference in platelet number before and after PAF challenge was calculated by: [formula] The % activity of drug was then determined by
Statistical significance (p≤0.05) of the difference between the mean PAF control and mean drug treated activity was determined with the pared Students's t-test.

Assay [2] has as its target T1, PAF binding, dog platelets (Canis lupus familiaris, UniProt A0A8I3NSH0).
T1 sequence (A0A8I3NSH0 1-343): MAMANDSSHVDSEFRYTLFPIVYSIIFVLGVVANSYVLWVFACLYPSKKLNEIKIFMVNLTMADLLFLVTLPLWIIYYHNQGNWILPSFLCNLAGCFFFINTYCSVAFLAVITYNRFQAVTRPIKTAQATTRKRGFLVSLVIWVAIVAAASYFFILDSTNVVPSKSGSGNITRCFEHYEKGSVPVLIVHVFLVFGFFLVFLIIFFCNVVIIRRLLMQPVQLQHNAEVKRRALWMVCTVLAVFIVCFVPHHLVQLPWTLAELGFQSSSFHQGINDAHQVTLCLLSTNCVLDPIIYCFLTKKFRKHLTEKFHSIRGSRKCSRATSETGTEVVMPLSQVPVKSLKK
Nature of the assay: PAF Binding Assay (3H-PAF binding to washed dog platelets). Conditions: 10 minutes at room temperature.
Experimental: The binding assay was performed in 400 μl polyethylene microcentrifuge tubes (Beckman) containing 50 μl of an oil mixture of 2 parts Siliconol AR200 (Serva): 1 part Silicone Fluid (Arthur H. Thomas). Buffer, standards, or analogs 150 μl total volume) were added to the tubes. Radiolabelled ^3 H-PAF (50 μl) was then added to the tubes. The reaction was started by the addition of 50 μl of dog platelets (2×10^7 platelets). The tubes were capped, inverted several times to mix, and incubated for 10 minutes at room temperature. The platelets were separated from the incubation mixture by centrifuging 1 minute in a Beckman Microfuge B centrifuge. The tip of the microfuge tube was cut off, and the platelets were washed out of the tip with 200 μl of 50% methanol (Burdick and Jackson). Aquasol (NEN, 10 ml) was added and the radioactivity in the samples was determined using an LS 8100 Beckman liquid scintillation counter linked to a Techtran tape recorder. Data was processed through an in-house computer system. Alternatively, radioactivity was determined using a Searle Mark III liquid scintillation counter linked to a Iso-Data microprocessor.
Blood was collected from anesthesized or unanesthesized dogs into 5ml plastic centrifuge tubes containing 3.8% sodium citrate as the anticoagulant (1 volume of citrate/9 volumes of blood). The red cells were removed by centrifugation for 15 minutes at 600 rpm (100-125 g) at room temperature. An aliquot of the supernatant platelet rich Plasma (PRP) was saved for cell counting and the remainder was acidified to pH 6.5 with 0.15M citric acid. The platelet pellet was obtained after a 10 minute centrifugation at 2000 rpm (1000 g) at room temperature. Washed platelets were prepared by resuspending the platelet pellet once with PBS containing 1 mM EDTA, centrifuging as noted, and then resuspending the platelets in 0.1% BSA-PBS. An aliquot of the washed platelets was counted, platelets used for binding assays were diluted to 2×10^7 platelets/assay tube (4×10^8 platelets/ml).

The target of assay [3] is T2, Thromboxane Synthase (TXA2 Syn.) (Homo sapiens, UniProt P24557).
T2 construct: microsomal fractions from human platelets as enzyme source; from tissue; host or cells: microsomal fractions from human platelets
T2 sequence (P24557 1-533): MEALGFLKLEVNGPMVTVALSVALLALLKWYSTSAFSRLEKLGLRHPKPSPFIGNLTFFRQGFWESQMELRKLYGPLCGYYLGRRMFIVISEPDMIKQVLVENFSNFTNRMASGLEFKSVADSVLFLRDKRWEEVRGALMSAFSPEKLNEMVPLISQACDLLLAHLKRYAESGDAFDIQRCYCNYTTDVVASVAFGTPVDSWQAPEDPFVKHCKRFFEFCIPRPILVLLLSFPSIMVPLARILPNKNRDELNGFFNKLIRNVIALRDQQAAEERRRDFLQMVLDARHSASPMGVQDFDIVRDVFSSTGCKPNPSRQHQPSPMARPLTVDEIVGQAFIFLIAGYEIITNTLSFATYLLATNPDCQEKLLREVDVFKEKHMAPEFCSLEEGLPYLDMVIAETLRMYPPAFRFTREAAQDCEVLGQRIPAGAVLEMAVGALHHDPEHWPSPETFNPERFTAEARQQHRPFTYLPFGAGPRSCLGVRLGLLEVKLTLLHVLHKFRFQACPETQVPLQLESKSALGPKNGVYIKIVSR
Nature of the assay: TXA2 Synthesis Inhibition (thromboxane synthase, microsomal fractions from human platelets). It is filed as biochemical. The settings on record: human platelet microsomes, 10 μM 14C-PGH2, 22°, 2 minutes. As to the method:
Thromboxane synthase inhibitory activity is measured by following the conversion of ^14 C-[…] using microsomal fractions from human platelets as enzyme source. In the aqueous incubation medium. The TXA2 decomposes rapidly into TXB2 . The amount of TXA2 syn. is adjusted so that under the conditions of the assay approximately 80-90% of the substrate. PGH2, is converted to product in control tubes. To prepare ^14 C-PGH2, ^14 C-AA(50-60mCi/mmole; Rose Chem.) is incubated with sheep seminal vesicular gland microsomes for 1.5 min. at 37° and then the ^14 C-PGH2 is extracted with diethylether, purified on columns of Sephadex LH-20 or silicic acid, and stored in acetone at -70° C. Incubations are done as follows. Sufficient ^14 C-PGH2 to yield a final substrate concentration of 10 μM ( 30,000 cpm) is added to the incubation tubes and then the acetone is removed under nitrogen. The tubes are placed in an ice bath and then 215 μl of ice cold phosphate buffered saline, 10 μof ethanol (control) or of test drug in ethanol, and 25 μl of the microsomal suspension are added with mixing in that order as rapidly as possible. The tubes are incubated at 22° for 2 minutes, the reaction is stopped and then the radioactive products and the unconverted PGH2 are extracted and analyzed by thin layer chromatography. The amount of ^14 C-PGH2 converted to products is analyzed by thin layer chromatography. The amount of ^14 C-PGH2 converted to products was used as a measure of TXA synthase activity. Inhibitors were tested initially at a concentration of 100 μM.

Assay [4] concerns PAF-Induced Bronchoconstriction. In words: PAF-Induced Bronchoconstriction Assay. The format is in vivo, guinea pig. The settings on record: Cavia porcellus; for inhibition in vivo at 1 mg/kg: 1 min, 1 mg/kg iv, 1 minute pretreatment; for inhibition in vivo at 50 mg/kg: po, 2 hours pretreatment. As to the method: The in vivo ability of compounds to inhibit PAF-induced bronchoconstriction in guinea pigs was assessed by the intravenous and oral routes of administration. The intravenous technique utilized male guinea pigs (Hartley strain, Charles River) weighing 400-600 g. Animals were anesthetized with urethane (2 g/kg) intraperitoneally and a polyethylene cannula was inserted into the jugular vein for intravenous drug administration. Tracheal pressure ([…]) was recorded from a Statham pressure transducer (P 32 AA). Propranolol was administered 5 minutes prior to challenge with PAF. Two minutes later spontaneous breathing was arrested with succinylcholine chloride (1.2 mg/kg) administered intravenously, and the animals were ventilated with a Harvard (Model 680) small animal respirator set at 40 breaths/min and 4.0 cc stroke volume. Control vehicle or test drug was administered through the cannula into the jugular vein 1 minute before the animals were challenged with a maximum constrictory dose of PAF (1.0 μg/kg) given intravenously. The change in tracheal pressure was averaged for four control and four drug-treated animals and percent inhibition was calculated.
For determination of oral activity, animals were dosed with test compound or vehicle two hours prior to challenge with PAF (1.0 μg/kg, i.v.).
The change in tracheal pressure is determined by subtracting the steady state baseline achieved after administration of succinylcholine from the peak bronchoconstriction seen after challenge with PAF. The mean change in tracheal pressure is calculated for each test compound and compared to the mean change in tracheal pressure for the control animals to give the percent inhibition of bronchoconstriction. The standard error is calculated as the standard error of the mean.

As to `COc1ccc(-c2ccc(C(=O)NC(C)CCCc3cccnc3)cc2)cc1OC` (racemic) [(rac.)-3',4'-Dimethoxy-N-[1-methyl-4-(3-pyridinyl)butyl][1,1'-biphenyl]-4-carboxamide], the inhibition in vivo at 3 mg/kg in assay [1] is 26%. In addition, the “PAF-Induced Platelet Count Decrease % Inhibition, po” value in assay [1] (no dose footnote printed) amounted to 75 ± 21%.

A word on the IC50: it is the concentration at which inhibition is half-maximal. Higher therefore signals weaker potency. Regarding `Cc1ccc(-c2ccc(C(=O)NC(C)CCCc3cccnc3)cc2)cc1C` (racemic) [(rac.)-3',4'-Dimethyl-N-[1-methyl-4-(3-pyridinyl)butyl][1,1'-biphenyl]-4-carboxamide], the IC50 is 200 nM in assay [2] and 100 to 1000 nM in assay [3]. For the same compound, in assay [1], the inhibition in vivo at 3 mg/kg stood at 12%.

As for `COc1cccc(-c2ccc(C(=S)NC(C)CCCc3cccnc3)cc2)c1` (racemic) [(rac.)-3'-Methoxy-N-(1-methyl-4-(3-pyridinyl)butyl][1,1'-biphenyl]-4-carbothioamide], the IC50 in assay [2] was 120 nM; in assay [3], 100 to 1000 nM. Further, the inhibition in vivo at 3 mg/kg in assay [1] is 6%. Also, in assay [4], the inhibition in vivo at 1 mg/kg is 16 ± 14%.

As for `Cc1ccc(-c2ccc(C(=S)NC(C)CCCc3cccnc3)cc2)cc1C` (racemic) [rac.-3',4'-Dimethyl-N-[1-methyl-4-(3-pyridinyl)butyl][1,1'-biphenyl]-4-carbothioamide], in assay [2], the IC50 came to 110 nM. In assay [1], the inhibition in vivo at 3 mg/kg worked out at 28%. Moreover, in assay [4], the inhibition in vivo at 1 mg/kg amounted to 4 ± 4%.

`COc1ccc(-c2ccc(C(=S)NCCCCc3cccnc3)cc2)cc1OC` [3',4'-Dimethoxy-N-[4-(3-pyridinyl)butyl][1,1'-biphenyl]-4-carbothioamide]: the IC50 in assay [3] is 225 nM. Moreover, the “PAF-Induced Platelet Count Decrease % Inhibition, po” value in assay [1] (100 mg/kg, 3 hours, pretreatment) is 53%. Moreover, the inhibition in vivo at 3 mg/kg in assay [1] stood at 15%.

For `Cc1ccc(-c2ccc(C(=O)NCCCCc3cccnc3)cc2)cc1C` [3',4'-Dimethyl-N-[4-(3-pyridinyl)butyl][1,1-biphenyl]-4-carboxamide], the IC50 amounted to 700 nM in assay [2] and 125 nM in assay [3].

Take `Cc1ccc(-c2ccc(C(=O)NCCCCCCc3cccnc3)cc2)cc1C` [3',4'-Dimethyl-N-[6-(3-pyridinyl)hexyl][1,1'-biphenyl]-4-carboxamide]: the IC50 amounted to 450 nM in assay [2] and 600 nM in assay [3]. The inhibition in vivo at 3 mg/kg in assay [1] is 27%.

In assay [2], `COc1ccc(-c2cc(C)c(C(=O)NCCCCc3cccnc3)c(C)c2)cc1OC` [3',4'Dimethoxy-3,5-dimethyl-N-[4-(3-pyridinyl)butyl][1,1'-biphenyl]-4-carboxamide] registered an IC50 of 60 nM. For the same compound, in assay [1], the inhibition in vivo at 3 mg/kg was found to be 14%. For the same compound, in assay [4], the inhibition in vivo at 1 mg/kg amounted to 17 ± 11%.

For `O=C(NCCCCc1cccnc1)c1ccc(-c2cccc(O)c2)cc1` [3'-Hydroxy-N-[4-(3-pyridinyl)-butyl][1,1'-biphenyl]-4-carboxamide], the IC50 in assay [2] is 300 nM; in assay [3] it was under 100 nM.

Compound `COc1cccc(-c2ccc(C(=O)NCCCCc3cccnc3)cc2)c1` [3'-Methoxy-N-[4-(3-pyridinyl)butyl][1,1'-biphenyl]-4-carboxamide] had an IC50 in assay [2] of 280 nM. In addition, inhibition in assay [3] was half-maximal at 25 nM (IC50). In addition, in assay [4], the inhibition in vivo at 1 mg/kg was 70 ± 10% and the inhibition in vivo at 50 mg/kg stood at 55 ± 17%.

Turning to `O=C(NCCCCc1cccnc1)c1ccc(-c2ccccc2)c(-c2ccccc2)c1` [3,4-Diphenyl-N-[4-(3-pyridinyl)butyl]-benzamide], the inhibition in vivo at 3 mg/kg in assay [1] was found to be 49%. For the same compound, in assay [4], the inhibition in vivo at 1 mg/kg worked out at 21 ± 4% and the inhibition in vivo at 50 mg/kg stood at 33 ± 12%.

In the case of `COc1cccc(-c2ccc(C(=O)NCCCCc3cccnc3)cc2-c2cccc(OC)c2)c1` [3,4-bis-(3-Methoxyphenyl)-N-[4-(3-pyridinyl)butyl]-benzamide], the inhibition in vivo at 3 mg/kg in assay [1] is 4%. Moreover, the inhibition in vivo at 1 mg/kg in assay [4] stood at 12 ± 6%.

Regarding `Cc1ccc(-c2ccc(-c3nnnn3CCCCc3cccnc3)cc2)cc1C` [3-[4-[5-(3',4'-Dimethyl-[1,1'-biphenyl]-4-yl)-1H-tetrazol-1-yl]butyl]pyridine], the IC50 in assay [2] was 800 nM; in assay [3] it was over 1000 nM. The inhibition in vivo at 1 mg/kg in assay [4] amounted to 57 ± 4%.

Take `Cc1ccc(-c2ccc(-c3nnnn3CCCCCCc3cccnc3)cc2)cc1C` [3-[6-[5-(3',4'-Dimethyl-[1,1'-biphenyl]-4-yl)-1H-tetrazol-1-yl]hexyl]pyridine]: the IC50 in assay [2] is 200 nM; in assay [3] it was 100 to 1000 nM. For the same compound, in assay [1], the inhibition in vivo at 3 mg/kg stood at 0%. In addition, the inhibition in vivo at 1 mg/kg in assay [4] was 18 ± 13%.

For `COc1cccc(-c2ccc(C(=O)N[C@H](C)CCCc3cccnc3)cc2)c1` [(R)-3'-Methoxy-N-[1-methyl-4-(3-pyridinyl)butyl]-[1,1'-biphenyl]-4-carboxamide], the IC50 in assay [2] worked out at 20 nM. Moreover, the inhibition in vivo at 3 mg/kg in assay [1] is 17%.

For the compound `O=C(NCCCCc1cccnc1)c1ccc(-c2ccccc2)cc1` [N-[4-(3-Pyridinyl)butyl]-[1,1'-biphenyl]-4-carboxamide], in assay [3], half-maximal inhibition (IC50) required 100 nM. The inhibition in vivo at 1 mg/kg in assay [4] turned out to be 42 ± 7%.

For the origin of these results see patent US4916145A, “Substituted n-[(pyridyl)alkyl]aryl-carboxamide” (Hoffmann-La Roche Inc., priority 1987, dated 1990).
